Where two headings read alike, the source gives them in different places.
System: RPE cells
Experimental: RPE cells (manufactured by Lonza K.K., 00194987) were seeded on a 96-well plate (Falcon, 353072) at 3.3×10^4 cells/well, and cultured in a maintenance medium (350 mL of DMEM (Sigma, D6046), 150 mL of F12 HAM (Sigma, N6658), 10 mL of B27 (Invitrogen, 17504-044), 5 mL of 200 mM L-glutamine (Sigma, G7513), 10 ng/mL of bFGF (Wako, 060-04543), […] of SB431542 hydrate (Sigma, S4317)) until the cells reached confluent. The cultured cells were washed with PBS(−) at room temperature, and then exposed to a pretreatment solution for 10 minutes or 30 minutes.
As the pretreatment solutions, solutions having EG concentrations of 10 (v/v) %, 12.5 (v/v) %, 15 (v/v) %, 17.5 (v/v) % and 20 (v/v) % were used. As the solvent of the pretreatment solution, a Dulbecco's modified Eagle's medium (DMEM) supplemented with 2 mM L-glutamine or PBS(−) was used.

## OCCO [EG, ethylene glycol]
0 hours of culture time, EG 10-20 (v/v) % in DMEM supplemented with 2 mM L-glutamine, exposure 10 minutes
  initial toxicity (metabolic activity of cells, MTS assay): increased in a concentration-dependent manner from the EG concentration of 12.5 (v/v) %
30-minute exposure versus 10-minute exposure
  time to recovery of metabolic activity: longer time to recovery is required
30 minutes of exposure time to the pretreatment solution
  cytotoxicity (MTS assay): same tendency of cytotoxicity as in the results of FIG. 1
PBS(-) used as the solvent
  cytotoxicity (MTS assay): the same tendency as when the DMEM medium supplemented with glutamine was used
Up to EG concentration of 17.5 (v/v) %, DMEM with glutamine, exposure 10 minutes
  culture time in which recovery of metabolic activity is possible: about 24 hours
